Measurements: patent publication US11420947B2, “(S)-n-hydroxy-2-(2-(4-methoxyphenyl)butanamido)thiazole-5-carboxamide and pharmaceutically acceptable salts thereof” (TRANSLATIONAL DRUG DEVELOPMENT, LLC, priority 2018, dated 2022)

Experiments:
Assay in all cases: CellTiter-Glo cell viability assay
Format in all cases: cell-based
NCI-H820 = settings: for IC50: NCI-H820, LUNG, NSCLC, 72 hours
Procedure: (§1) Cell viability in the presence of varying concentrations of the above listed compounds at different time points was used to assess cytotoxicity and the effect of the compounds on cell proliferation.
(§2) Cell viability was measured by the CellTiter-Glo® cell viability assay from Promega (Madison, Wis.). The CellTiter-Glo® Luminescent Cell Viability Assay is a homogeneous method to determine the number of viable cells in culture based on quantitation of the ATP present, which signals the presence of metabolically active cells. Following treatment, CellTiter-Glo® is added to treatment wells and incubated at 37° C. luminescence values were measured at using a Molecular Devices Spectramax microplate reader
(§3) Cells were grown to 70% confluency, trypsinized, counted, and seeded in 96 well flat-bottom plates at a final concentration of 2.5×10^3-5×10^3 cells/well (Day 0). Cells were allowed to incubate in growth media for 24 hours. Treatment with the test agents or standard agents began on Day 1 and continued for 72 hours. At the 72-hour timepoint, treatment containing media was removed. Viable cell numbers are quantified by the CellTiter-Glo® cell viability assay as described above. Results from these studies were used to calculate an IC50 value (concentration of drug that inhibits cell growth by 50 percent of control) for each compound.
(§4) For single agent and combination studies, data from each experiment was collected and expressed as % Cell Growth using the following calculation: % Cell Growth=(ftest/fvehicle)×100
(§5) Where test is the fluorescence of the tested sample, and fvehicle is the fluorescence of the vehicle in which the drug is dissolved. Dose response graphs and IC50 values were generated using Prism 6 software (GraphPad) using the following equation: Y=(Top-Bottom)/(1+10^((logIC^50^-X)-HillSlope))

Hec-1A = settings: for IC50: Homo sapiens, Hec-1A, ENDOMETRIAL, 72 hours
Procedure: as §1, §2, §3, §4, §5

K562 = settings: for IC50: Homo sapiens, K562, HEMATOPIETIC, CML, 72 hours
Procedure: as §1, §2, §3, §4, §5

SNU-1 = settings: for IC50: Homo sapiens, SNU1, SNU-1, GASTRIC, Carcinoma, 72 hours
Procedure: as §1, §2, §3, §4, §5

MiaPaCa = settings: for IC50: Homo sapiens, MIA PaCa-2, MiaPaCa, PANCREAS, Pancreatic, 72 hours
Procedure: as §1, §2, §3, §4, §5

BxPC-3 = settings: for IC50: Homo sapiens, BxPC-3, PANCREAS, Pancreatic, 72 hours
Procedure: as §1, §2, §3, §4, §5

NCI-H209 = settings: for IC50: Homo sapiens, NCI-H209, LUNG, Carcinoma, 72 hours
Procedure: as §1, §2, §3, §4, §5

KMM-1 = settings: for IC50: KMM-1, HEMATOPIETIC, MM, 72 hours
Procedure: as §1, §2, §3, §4, §5

J1M-1 = settings: for IC50: J1M-1, HEMATOPIETIC, MM, 72 hours
Procedure: as §1, §2, §3, §4, §5

H522 = settings: for IC50: Homo sapiens, NCI-H522, H522, LUNG, NSCLC, 72 hours
Procedure: as §1, §2, §3, §4, §5

RPMI-8226 = settings: for IC50: Homo sapiens, RPMI-8226, HEMATOPIETIC, MM, 72 hours
Procedure: as §1, §2, §3, §4, §5

RKO = settings: for IC50: Homo sapiens, RKO, COLON, CRC, 72 hours
Procedure: as §1, §2, §3, §4, §5

AN3CA = settings: for IC50: Homo sapiens, AN3-CA, AN3CA, ENDOMETRIAL, 72 hours
Procedure: as §1, §2, §3, §4, §5

NCI-H1963 = settings: for IC50: Homo sapiens, NCI-H1963, LUNG, Carcinoma, 72 hours
Procedure: as §1, §2, §3, §4, §5

KLE = settings: for IC50: Homo sapiens, KLE, ENDOMETRIAL, 72 hours
Procedure: as §1, §2, §3, §4, §5

MSTO-211H = settings: for IC50: Homo sapiens, MSTO-211H, LUNG, Mesothelioma, 72 hours
Procedure: as §1, §2, §3, §4, §5

ASPC-1 = settings: for IC50: Homo sapiens, ASPC1, ASPC-1, PANCREAS, Pancreatic, 72 hours
Procedure: as §1, §2, §3, §4, §5

KG-1 = settings: for IC50: Homo sapiens, KG-1, HEMATOPIETIC, AML, 72 hours
Procedure: as §1, §2, §3, §4, §5

Ishikawa = settings: for IC50: Homo sapiens, Ishikawa, ENDOMETRIAL, 72 hours
Procedure: as §1, §2, §3, §4, §5

CCRF-CEM = settings: for IC50: Homo sapiens, CCRF-CEM, HEMATOPIETIC, ALL, 72 hours
Procedure: as §1, §2, §3, §4, §5

G402 = settings: for IC50: Homo sapiens, G-402, G402, RENAL, Renal leiomyoblastoma, 72 hours
Procedure: as §1, §2, §3, §4, §5

HCC1806 = settings: for IC50: Homo sapiens, HCC1806, BREAST, acantholytic squamous cell carcinoma, 72 hours
Procedure: as §1, §2, §3, §4, §5

SKUT-1 = settings: for IC50: Homo sapiens, SK-UT-1, SKUT-1, ENDOMETRIAL, Uterine, 72 hours
Procedure: as §1, §2, §3, §4, §5

H358 = settings: for IC50: Homo sapiens, NCI-H358, H358, LUNG, NSCLC, 72 hours
Procedure: as §1, §2, §3, §4, §5

LK-2 = settings: for IC50: Homo sapiens, LK-2, LUNG, Carcinoma, 72 hours
Procedure: as §1, §2, §3, §4, §5

Compound: CCC(C(=O)Nc1ncc(C(=O)NO)s1)c1ccc(OC)cc1 (racemic) [#1, N-hydroxy-2-(2-(4-methoxyphenyl)butanamido)thiazole-5-carboxamide]
- IC50 (NCI-H820): 85 nM
- IC50 (Hec-1A): 56 nM
- IC50 (K562): 145 nM
- IC50 (SNU-1): 509 nM
- IC50 (MiaPaCa): 51 nM
- IC50 (BxPC-3): 251 nM
- IC50 (NCI-H209): 110 nM
- IC50 (KMM-1): 20 nM
- IC50 (J1M-1): 47 nM
- IC50 (H522): 178 nM
- IC50 (RPMI-8226): 31 nM
- IC50 (RKO): 267 nM
- IC50 (AN3CA): 66 nM
- IC50 (NCI-H1963): 196 nM
- IC50 (KLE): 215 nM
- IC50 (MSTO-211H): 128 nM
- IC50 (ASPC-1): 158 nM
- IC50 (KG-1): 22 nM
- IC50 (Ishikawa): 48 nM
- IC50 (CCRF-CEM): 28 nM
- IC50 (G402): 102 nM
- IC50 (HCC1806): 179 nM
- IC50 (SKUT-1): 229 nM
- IC50 (H358): 158 nM
- IC50 (LK-2): 196 nM

Compound: CC[C@H](C(=O)Nc1ncc(C(=O)NO)s1)c1ccc(OC)cc1 [#1a, (S)—N-hydroxy-2-(2-(4-methoxyphenyl)butanamido)thiazole-5-carboxamide]
- IC50 (NCI-H820): 54 nM
- #1/#1a (NCI-H820; ratio of IC50, NCI-H820): 1.57
- #1b/#1a (NCI-H820; ratio of IC50, NCI-H820): 7.37
- IC50 (Hec-1A): 37 nM
- #1/#1a (Hec-1A; ratio of IC50, Hec-1A): 1.51
- #1b/#1a (Hec-1A; ratio of IC50, Hec-1A): 8.35
- IC50 (K562): 78 nM
- #1/#1a (K562; ratio of IC50, K562): 1.86
- #1b/#1a (K562; ratio of IC50, K562): 5.1
- #1/#1a (SNU-1; ratio of IC50, SNU-1): 3.86
- #1b/#1a (SNU-1; ratio of IC50, SNU-1): 10.63
- IC50 (MiaPaCa): 35 nM
- #1/#1a (MiaPaCa; ratio of IC50, MiaPaCa): 1.46
- #1b/#1a (MiaPaCa; ratio of IC50, MiaPaCa): 8.26
- IC50 (BxPC-3): 174 nM
- #1/#1a (BxPC-3; ratio of IC50, BxPC-3): 1.44
- #1b/#1a (BxPC-3; ratio of IC50, BxPC-3): 6.3
- IC50 (NCI-H209): 16 nM
- #1/#1a (NCI-H209; ratio of IC50, NCI-H209): 6.88
- #1b/#1a (NCI-H209; ratio of IC50, NCI-H209): 15.69
- IC50 (KMM-1): 19 nM
- #1/#1a (KMM-1; ratio of IC50, KMM-1): 1.05
- #1b/#1a (KMM-1; ratio of IC50, KMM-1): 5.53
- IC50 (J1M-1): 26 nM
- #1/#1a (J1M-1; ratio of IC50, J1M-1): 1.81
- #1b/#1a (J1M-1; ratio of IC50, J1M-1): 8.42
- IC50 (H522): 115 nM
- #1/#1a (H522; ratio of IC50, H522): 1.55
- #1b/#1a (H522; ratio of IC50, H522): 8.5
- IC50 (RPMI-8226): 14 nM
- #1/#1a (RPMI-8226; ratio of IC50, RPMI-8226): 2.21
- #1b/#1a (RPMI-8226; ratio of IC50, RPMI-8226): 9.21
- IC50 (RKO): 145 nM
- #1/#1a (RKO; ratio of IC50, RKO): 1.84
- #1b/#1a (RKO; ratio of IC50, RKO): 9.37
- IC50 (AN3CA): 47 nM
- #1/#1a (AN3CA; ratio of IC50, AN3CA): 1.4
- #1b/#1a (AN3CA; ratio of IC50, AN3CA): 4.87
- IC50 (NCI-H1963): 26 nM
- #1/#1a (NCI-H1963; ratio of IC50, NCI-H1963): 7.54
- #1b/#1a (NCI-H1963; ratio of IC50, NCI-H1963): 15.65
- IC50 (KLE): 106 nM
- #1/#1a (KLE; ratio of IC50, KLE): 2.03
- #1b/#1a (KLE; ratio of IC50, KLE): 8.03
- IC50 (MSTO-211H): 52 nM
- #1/#1a (MSTO-211H; ratio of IC50, MSTO-211H): 2.46
- #1b/#1a (MSTO-211H; ratio of IC50, MSTO-211H): 6.77
- IC50 (ASPC-1): 112 nM
- #1/#1a (ASPC-1; ratio of IC50, ASPC-1): 1.41
- #1b/#1a (ASPC-1; ratio of IC50, ASPC-1): 7.26
- IC50 (KG-1): 12 nM
- #1/#1a (KG-1; ratio of IC50, KG-1): 1.83
- #1b/#1a (KG-1; ratio of IC50, KG-1): 12.33
- IC50 (Ishikawa): 28 nM
- #1/#1a (Ishikawa; ratio of IC50, Ishikawa): 1.71
- #1b/#1a (Ishikawa; ratio of IC50, Ishikawa): 6.82
- IC50 (CCRF-CEM): 14 nM
- #1/#1a (CCRF-CEM; ratio of IC50, CCRF-CEM): 2
- #1b/#1a (CCRF-CEM; ratio of IC50, CCRF-CEM): 8.07
- IC50 (G402): 65 nM
- #1/#1a (G402; ratio of IC50, G402): 1.57
- #1b/#1a (G402; ratio of IC50, G402): 7.71
- IC50 (HCC1806): 71 nM
- #1/#1a (HCC1806; ratio of IC50, HCC1806): 2.52
- #1b/#1a (HCC1806; ratio of IC50, HCC1806): 6.55
- IC50 (SKUT-1): 215 nM
- #1/#1a (SKUT-1; ratio of IC50, SKUT-1): 1.07
- #1b/#1a (SKUT-1; ratio of IC50, SKUT-1): 5.86
- IC50 (H358): 69 nM
- #1/#1a (H358; ratio of IC50, H358): 2.29
- #1b/#1a (H358; ratio of IC50, H358): 8.09
- IC50 (LK-2): 40 nM
- #1/#1a (LK-2; ratio of IC50, LK-2): 4.9
- #1b/#1a (LK-2; ratio of IC50, LK-2): 9.95

Compound: CC[C@@H](C(=O)Nc1ncc(C(=O)NO)s1)c1ccc(OC)cc1 [#1b, (R)—N-hydroxy-2-(2-(4-methoxyphenyl)butanamido)thiazole-5-carboxamide]
- IC50 (NCI-H820): 398 nM
- IC50 (Hec-1A): 309 nM
- IC50 (K562): 398 nM
- IC50 (SNU-1): 1400 nM
- IC50 (MiaPaCa): 289 nM
- IC50 (BxPC-3): 1100 nM
- IC50 (NCI-H209): 251 nM
- IC50 (KMM-1): 105 nM
- IC50 (J1M-1): 219 nM
- IC50 (H522): 977 nM
- IC50 (RPMI-8226): 129 nM
- IC50 (RKO): 1360 nM
- IC50 (AN3CA): 229 nM
- IC50 (NCI-H1963): 407 nM
- IC50 (KLE): 851 nM
- IC50 (MSTO-211H): 352 nM
- IC50 (ASPC-1): 813 nM
- IC50 (KG-1): 148 nM
- IC50 (Ishikawa): 191 nM
- IC50 (CCRF-CEM): 113 nM
- IC50 (G402): 501 nM
- IC50 (HCC1806): 465 nM
- IC50 (SKUT-1): 1260 nM
- IC50 (H358): 558 nM
- IC50 (LK-2): 398 nM
